Several values for one entry are separate records, joined by “and”; a condition that tells them apart may be missing. Equal values may be shown once. Where a name gives a salt, the structure may show the parent alone.

Data set [1] can be described thus: Solubility of tiagabine hydrochloride in various solvents at room temperature. In kind it is physicochemical. As to conditions: 100 mg sample.
A short description of data set [2]: Particle size analysis by HELOS (H1551) & RODOS. Format: physicochemical. As to conditions: hydrochloride. The text has this: Particle Size Analysis (Analysed by HELOS (H1551) & RODOS)
The nature of data set [3]: XRD analysis after 6 months storage at ambient conditions (polymorph stability). Format: physicochemical. The settings on record: hydrochloride. The text has this:
In embodiment of the present invention the stable polymorph IV of tiagabine hydrochloride may be obtained in particle size with volume mean diameter (VMD) less than 20 microns.

The conditions of data set [4]: reported in prior art, cited from earlier work; for Thermal stability: elevated temperature, hydrochloride.

For `Cc1ccsc1C(=CCCN1CCC[C@@H](C(=O)O)C1)c1sccc1C` [tiagabine hydrochloride], the “Solubility: volume of solvent” value was 24 mL in data set [1] (Acetone); over 100 mL in data set [1] (Acetonitrile); 0.5 mL in data set [1] (DMF); 0.3 mL in data set [1] (Ethanol); over 100 mL in data set [1] (Ethylacetate); 1.3 mL in data set [1] (IPA). The “Solubility: volume of solvent” value in data set [1] (Methanol) was 0.2 mL; in data set [1] (Toluene), over 100 mL; in data set [1] (Water) it was 0.7 mL.
Take `Cc1ccsc1C(=CCCN1CCC[C@@H](C(=O)O)C1)c1sccc1C` [Form IV, tiagabine hydrochloride]: in data set [2], the “Volume mean diameter (VMD)” value is 16.7 microns and 19.8 microns. The “Change in x-ray diffraction pattern on storage (polymorphic stability)” value is “matches the XRD of ‘0’ day sample” in data set [3] and “no change in the x-ray diffraction pattern” in data set [3] (listed as polymorph IV).
Regarding `Cc1ccsc1C(=CCCN1CCC[C@@H](C(=O)O)C1)c1sccc1C` [Form I, tiagabine hydrochloride], in data set [4], the Thermal stability entry was “less stable at elevated temperature”, the Hygroscopicity entry is on record as “non-hygroscopic” and the Stability entry is reported as “stable”. In addition, the “Volume mean diameter (VMD)” value in data set [2] is reported as 60.2 microns.
`Cc1ccsc1C(=CCCN1CCC[C@@H](C(=O)O)C1)c1sccc1C` [Form II, tiagabine hydrochloride]: in data set [4], the Thermal stability entry was “thermally stable” and the Hygroscopicity result is “non-hygroscopic”.
